Measured values published in ChEMBL document CHEMBL1909046, “DrugMatrix in vitro pharmacology data”.

Legend:
[1] = DRUGMATRIX: Sigma2 radioligand binding (ligand: [3H] Ifenprodil); assay type: cell membranes, Rattus norvegicus, Wistar, Brain, Membrane; details: Not Active = under 50% inhibition at 10 µM
[2] = molecular target: Cytochrome P450 2D6 (Homo sapiens, UniProt P10635); details: bti-tn-5b1-4; note: in other assays of this panel Not Active means under 50% inhibition at 10 µM
[3] = DRUGMATRIX: Glutamate, NMDA, Agonism radioligand binding (ligand: [3H] CGP-39653); assay type: cell membranes, Rattus norvegicus, Wistar, Cerebral cortex, Membrane; details: Not Active = under 50% inhibition at 10 µM
[4] = DRUGMATRIX: GABAA, Muscimol, Central radioligand binding (ligand: [3H] Muscimol); assay type: cell membranes, Rattus norvegicus, Wistar, Brain, Membrane; details: Not Active = under 50% inhibition at 10 µM
[5] = molecular target: Nitric oxide synthase 1 (Rattus norvegicus, UniProt P29476); assay type: tissue-based, Cerebellum; note: in other assays of this panel Not Active means under 50% inhibition at 10 µM
[6] = molecular target: Carbonic anhydrase 2 (Homo sapiens, UniProt P00918); test: DRUGMATRIX: Carbonic Anhydrase II enzyme inhibition (substrate: 4-Nitrophenyl acetate (4-NPA)); assay type: tissue-based, Erythrocyte; details: erythrocyte; Not Active = under 50% inhibition at 10 µM
[7] = molecular target: T1, Vasoactive intestinal polypeptide receptor 1 (Homo sapiens, UniProt P32241); assay type: cell membranes, Membrane; details: ht-29; note: in other assays of this panel Not Active means under 50% inhibition at 10 µM
T1 sequence (P32241 whole entry): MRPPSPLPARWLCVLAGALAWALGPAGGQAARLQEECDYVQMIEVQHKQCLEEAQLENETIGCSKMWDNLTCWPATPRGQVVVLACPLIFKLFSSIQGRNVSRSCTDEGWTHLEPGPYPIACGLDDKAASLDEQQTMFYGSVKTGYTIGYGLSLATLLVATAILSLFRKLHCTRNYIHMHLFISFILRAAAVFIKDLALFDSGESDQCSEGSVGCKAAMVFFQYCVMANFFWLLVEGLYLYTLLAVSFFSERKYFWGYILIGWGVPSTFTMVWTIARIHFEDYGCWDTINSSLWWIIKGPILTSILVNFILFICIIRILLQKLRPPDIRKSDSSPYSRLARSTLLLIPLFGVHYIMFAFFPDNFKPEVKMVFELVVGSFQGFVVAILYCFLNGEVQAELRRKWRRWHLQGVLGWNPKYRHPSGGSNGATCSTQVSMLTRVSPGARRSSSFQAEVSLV

Cytochrome P450 2D6, sequence (P10635 whole entry): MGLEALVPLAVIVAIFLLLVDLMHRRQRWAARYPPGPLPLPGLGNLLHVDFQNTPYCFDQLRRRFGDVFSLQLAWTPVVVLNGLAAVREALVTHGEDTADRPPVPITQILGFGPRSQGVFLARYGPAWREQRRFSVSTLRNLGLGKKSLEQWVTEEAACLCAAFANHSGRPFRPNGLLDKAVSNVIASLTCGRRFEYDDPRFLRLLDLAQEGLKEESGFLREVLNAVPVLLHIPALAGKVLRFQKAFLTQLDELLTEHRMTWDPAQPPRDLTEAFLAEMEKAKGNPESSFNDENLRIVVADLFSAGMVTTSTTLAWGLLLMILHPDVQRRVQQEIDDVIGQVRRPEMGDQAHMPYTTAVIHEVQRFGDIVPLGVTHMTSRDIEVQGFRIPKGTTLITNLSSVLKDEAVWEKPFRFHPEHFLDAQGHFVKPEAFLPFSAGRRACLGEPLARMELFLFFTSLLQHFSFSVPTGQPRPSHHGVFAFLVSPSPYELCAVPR
Nitric oxide synthase 1, sequence (P29476 whole entry): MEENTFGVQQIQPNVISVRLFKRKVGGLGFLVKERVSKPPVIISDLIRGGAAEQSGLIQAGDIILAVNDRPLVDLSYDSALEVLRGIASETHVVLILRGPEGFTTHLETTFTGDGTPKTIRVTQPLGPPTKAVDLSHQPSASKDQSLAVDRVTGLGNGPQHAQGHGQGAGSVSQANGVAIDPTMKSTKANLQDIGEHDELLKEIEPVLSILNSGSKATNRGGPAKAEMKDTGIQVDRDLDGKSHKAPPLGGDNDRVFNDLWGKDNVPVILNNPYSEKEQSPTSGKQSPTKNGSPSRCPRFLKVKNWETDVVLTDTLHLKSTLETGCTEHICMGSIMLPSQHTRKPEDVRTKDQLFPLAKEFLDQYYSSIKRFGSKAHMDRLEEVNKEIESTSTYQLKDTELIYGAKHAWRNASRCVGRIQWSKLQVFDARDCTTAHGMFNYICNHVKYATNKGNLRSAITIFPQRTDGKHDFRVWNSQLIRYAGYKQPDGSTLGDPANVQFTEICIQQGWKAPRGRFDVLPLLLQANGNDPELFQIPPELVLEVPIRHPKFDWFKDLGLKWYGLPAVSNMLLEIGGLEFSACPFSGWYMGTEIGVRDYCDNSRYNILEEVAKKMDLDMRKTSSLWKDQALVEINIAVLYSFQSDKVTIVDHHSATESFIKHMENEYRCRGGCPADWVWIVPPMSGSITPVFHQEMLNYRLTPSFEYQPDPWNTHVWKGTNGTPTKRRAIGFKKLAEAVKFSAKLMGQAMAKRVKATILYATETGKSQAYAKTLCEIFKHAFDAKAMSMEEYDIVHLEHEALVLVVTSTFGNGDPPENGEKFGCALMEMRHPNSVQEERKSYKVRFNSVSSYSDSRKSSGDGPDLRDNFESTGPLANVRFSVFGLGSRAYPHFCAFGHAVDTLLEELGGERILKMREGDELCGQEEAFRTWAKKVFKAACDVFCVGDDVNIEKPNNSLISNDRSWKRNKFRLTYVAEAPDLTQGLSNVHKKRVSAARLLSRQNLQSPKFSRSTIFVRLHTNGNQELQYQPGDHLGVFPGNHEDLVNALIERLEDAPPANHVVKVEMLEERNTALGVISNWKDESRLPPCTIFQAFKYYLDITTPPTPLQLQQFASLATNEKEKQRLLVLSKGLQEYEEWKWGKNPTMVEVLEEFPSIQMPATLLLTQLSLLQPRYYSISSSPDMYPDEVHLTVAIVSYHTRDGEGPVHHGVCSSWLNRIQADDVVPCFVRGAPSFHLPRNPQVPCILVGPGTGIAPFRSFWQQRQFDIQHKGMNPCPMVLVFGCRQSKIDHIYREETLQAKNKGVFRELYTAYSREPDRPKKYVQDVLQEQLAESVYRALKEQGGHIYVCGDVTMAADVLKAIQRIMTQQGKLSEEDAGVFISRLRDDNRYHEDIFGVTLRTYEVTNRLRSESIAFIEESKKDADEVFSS

N[C@@H](Cc1ccc(O)c(O)c1)C(=O)O [LEVODOPA]
Not Active: IC50 [1] | Ki [1] | IC50 [2] | Ki [2] | IC50 [3] | Ki [3] | IC50 [4] | Ki [4] | IC50 [5] | IC50 [6] | IC50 [7]
